Experimental data reported in PubChem BioAssay (NCI).
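Results reflect a 48-hour exposure of cells in 96-well plates to compound at five concentrations. Here, GI50 denotes the concentration required for 50% inhibition of growth. TGI is the concentration that stops growth completely.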

Legend:
Test in all cases: growth of human tumour cells (NCI), 48 h; in the data active = GI50 below about 0.43 µM; inactive = the rest
MDA-MB-231 breast = system: MDA-MB-231 breast
RPMI-8226 leukemia = system: RPMI-8226 leukemia
SR leukemia = system: SR leukemia
HS 578T breast = system: HS 578T breast
TK-10 renal = system: TK-10 renal
T-47D breast = system: T-47D breast
OVCAR-8 ovarian = system: OVCAR-8 ovarian
MOLT-4 leukemia = system: MOLT-4 leukemia
HOP-62 NSCLC = system: HOP-62 NSCLC
K-562 leukemia = system: K-562 leukemia
SF-268 CNS = system: SF-268 CNS
NCI-H226 lung = system: NCI-H226 lung
UACC-257 melanoma = system: UACC-257 melanoma
MCF7 breast = system: MCF7 breast
NCI/ADR-RES ovarian = system: NCI/ADR-RES ovarian
SK-MEL-2 melanoma = system: SK-MEL-2 melanoma
OVCAR-3 ovarian = system: OVCAR-3 ovarian
OVCAR-4 ovarian = system: OVCAR-4 ovarian
RXF 393 renal = system: RXF 393 renal
COLO 205 colon = system: COLO 205 colon
UO-31 renal = system: UO-31 renal
BT-549 breast = system: BT-549 breast
HL-60(TB) leukemia = system: HL-60(TB) leukemia
MALME-3M melanoma = system: MALME-3M melanoma
CCRF-CEM leukemia = system: CCRF-CEM leukemia
IGROV1 ovarian = system: IGROV1 ovarian
SW-620 colon = system: SW-620 colon
OVCAR-5 ovarian = system: OVCAR-5 ovarian
UACC-62 melanoma = system: UACC-62 melanoma
HCT-15 colon = system: HCT-15 colon
NCI-H460 lung = system: NCI-H460 lung
MDA-MB-435 = system: MDA-MB-435
A498 renal = system: A498 renal
SNB-19 CNS = system: SNB-19 CNS
NCI-H23 lung = system: NCI-H23 lung
SK-OV-3 ovarian = system: SK-OV-3 ovarian
A549 NSCLC = system: A549 NSCLC
SF-295 CNS = system: SF-295 CNS
M14 melanoma = system: M14 melanoma
SF-539 CNS = system: SF-539 CNS
HT29 colon = system: HT29 colon
PC-3 prostate = system: PC-3 prostate
U251 CNS = system: U251 CNS
SK-MEL-5 melanoma = system: SK-MEL-5 melanoma
CAKI-1 renal = system: CAKI-1 renal
HCT-116 colon = system: HCT-116 colon
HOP-92 NSCLC = system: HOP-92 NSCLC
HCC-2998 colon = system: HCC-2998 colon
NCI-H522 lung = system: NCI-H522 lung
ACHN renal = system: ACHN renal
786-0 renal = system: 786-0 renal
KM12 colon = system: KM12 colon
SN12C renal = system: SN12C renal
EKVX NSCLC = system: EKVX NSCLC
SK-MEL-28 melanoma = system: SK-MEL-28 melanoma
SNB-75 CNS = system: SNB-75 CNS
LOX IMVI melanoma = system: LOX IMVI melanoma
DU-145 prostate = system: DU-145 prostate

COc1ccc(N2C(=O)/C(=C/C(Cl)=C/c3ccc([N+](=O)[O-])cc3)SC2=S)cc1
active: GI50 (RPMI-8226 leukemia) 0.268 µM | GI50 (SR leukemia) 0.312 µM | GI50 (MCF7 breast) 0.393 µM
inactive: GI50 (MDA-MB-231 breast) 1.69 µM | GI50 (HS 578T breast) 3.28 µM | GI50 (TK-10 renal) 2.76 µM | GI50 (T-47D breast) 0.725 µM | GI50 (OVCAR-8 ovarian) 0.462 µM | GI50 (MOLT-4 leukemia) 0.679 µM | GI50 (HOP-62 NSCLC) 2.12 µM | GI50 (K-562 leukemia) 0.555 µM | GI50 (SF-268 CNS) 2.95 µM | GI50 (NCI-H226 lung) 4.23 µM | GI50 (UACC-257 melanoma) 2.88 µM | GI50 (NCI/ADR-RES ovarian) 0.562 µM | GI50 (SK-MEL-2 melanoma) > 21.3 µM
0.727 µM: TGI (RPMI-8226 leukemia)
22 µM: TGI (SR leukemia)
> 37.9 µM: TGI (HS 578T breast)
> 100 µM: TGI (MDA-MB-231 breast) | TGI (TK-10 renal) | TGI (T-47D breast) | TGI (OVCAR-8 ovarian) | TGI (MOLT-4 leukemia) | TGI (HOP-62 NSCLC) | TGI (K-562 leukemia) | TGI (SF-268 CNS) | TGI (NCI-H226 lung) | TGI (UACC-257 melanoma) | TGI (MCF7 breast) | TGI (NCI/ADR-RES ovarian) | TGI (SK-MEL-2 melanoma)

O=C(N/N=C\c1cccs1)c1ccncc1
> 100 µM: TGI (OVCAR-3 ovarian) | TGI (OVCAR-4 ovarian) | TGI (RXF 393 renal) | TGI (MDA-MB-231 breast) | TGI (COLO 205 colon) | TGI (UO-31 renal) | TGI (BT-549 breast) | TGI (HL-60(TB) leukemia) | TGI (MALME-3M melanoma) | TGI (CCRF-CEM leukemia) | TGI (IGROV1 ovarian) | TGI (RPMI-8226 leukemia) | TGI (SW-620 colon) | TGI (SR leukemia) | TGI (OVCAR-5 ovarian) | TGI (UACC-62 melanoma) | TGI (HS 578T breast) | TGI (HCT-15 colon) | TGI (NCI-H460 lung) | TGI (TK-10 renal) | TGI (MDA-MB-435) | TGI (A498 renal) | TGI (T-47D breast) | TGI (OVCAR-8 ovarian) | TGI (SNB-19 CNS) | TGI (MOLT-4 leukemia) | TGI (NCI-H23 lung) | TGI (SK-OV-3 ovarian) | TGI (A549 NSCLC) | TGI (SF-295 CNS) | TGI (M14 melanoma) | TGI (HOP-62 NSCLC) | TGI (K-562 leukemia) | TGI (SF-268 CNS) | TGI (SF-539 CNS) | TGI (HT29 colon) | TGI (NCI-H226 lung) | TGI (PC-3 prostate) | TGI (U251 CNS) | TGI (SK-MEL-5 melanoma) | TGI (UACC-257 melanoma) | TGI (CAKI-1 renal) | TGI (HCT-116 colon) | TGI (HOP-92 NSCLC) | TGI (MCF7 breast) | TGI (HCC-2998 colon) | TGI (NCI-H522 lung) | TGI (NCI/ADR-RES ovarian) | TGI (ACHN renal) | TGI (786-0 renal) | TGI (SK-MEL-2 melanoma) | TGI (KM12 colon) | TGI (SN12C renal) | TGI (EKVX NSCLC) | TGI (SK-MEL-28 melanoma) | TGI (SNB-75 CNS)

O=C1OCC(c2ccc(O)cc2)=C1c1cc(O)c(O)c(O)c1
inactive: GI50 (OVCAR-3 ovarian) 27.9 µM | GI50 (OVCAR-4 ovarian) > 100 µM | GI50 (RXF 393 renal) > 100 µM | GI50 (LOX IMVI melanoma) 32.6 µM | GI50 (MDA-MB-231 breast) > 100 µM | GI50 (COLO 205 colon) > 100 µM | GI50 (UO-31 renal) > 100 µM | GI50 (BT-549 breast) > 100 µM | GI50 (MALME-3M melanoma) > 100 µM | GI50 (CCRF-CEM leukemia) 51.7 µM | GI50 (IGROV1 ovarian) > 100 µM | GI50 (RPMI-8226 leukemia) 44.1 µM | GI50 (SW-620 colon) 68 µM | GI50 (SR leukemia) 20.7 µM | GI50 (OVCAR-5 ovarian) 55.6 µM | GI50 (UACC-62 melanoma) > 100 µM | GI50 (HS 578T breast) > 100 µM | GI50 (HCT-15 colon) > 100 µM | GI50 (NCI-H460 lung) > 100 µM | GI50 (TK-10 renal) > 100 µM | GI50 (MDA-MB-435) 26.4 µM | GI50 (A498 renal) > 100 µM | GI50 (T-47D breast) > 100 µM | GI50 (OVCAR-8 ovarian) > 100 µM | GI50 (SNB-19 CNS) > 100 µM | GI50 (MOLT-4 leukemia) > 100 µM | GI50 (NCI-H23 lung) > 100 µM | GI50 (A549 NSCLC) > 100 µM | GI50 (SF-295 CNS) 26.4 µM | GI50 (M14 melanoma) > 100 µM | GI50 (HOP-62 NSCLC) 58.6 µM | GI50 (K-562 leukemia) 82.2 µM | GI50 (DU-145 prostate) > 100 µM | GI50 (SF-268 CNS) > 100 µM | GI50 (SF-539 CNS) > 100 µM | GI50 (HT29 colon) > 100 µM | GI50 (NCI-H226 lung) > 100 µM | GI50 (PC-3 prostate) > 100 µM | GI50 (U251 CNS) 31.4 µM | GI50 (SK-MEL-5 melanoma) > 100 µM | GI50 (UACC-257 melanoma) > 100 µM | GI50 (CAKI-1 renal) 43.2 µM | GI50 (HCT-116 colon) 36 µM | GI50 (HOP-92 NSCLC) > 100 µM | GI50 (MCF7 breast) 77.5 µM | GI50 (NCI-H522 lung) > 100 µM | GI50 (NCI/ADR-RES ovarian) 25.2 µM | GI50 (ACHN renal) > 100 µM | GI50 (786-0 renal) 62.5 µM | GI50 (KM12 colon) 89.3 µM | GI50 (SN12C renal) 54 µM | GI50 (EKVX NSCLC) > 100 µM | GI50 (SK-MEL-28 melanoma) > 100 µM | GI50 (SNB-75 CNS) > 100 µM
> 100 µM: TGI (OVCAR-4 ovarian) | TGI (RXF 393 renal) | TGI (LOX IMVI melanoma) | TGI (MDA-MB-231 breast) | TGI (COLO 205 colon) | TGI (UO-31 renal) | TGI (BT-549 breast) | TGI (MALME-3M melanoma) | TGI (CCRF-CEM leukemia) | TGI (IGROV1 ovarian) | TGI (RPMI-8226 leukemia) | TGI (SW-620 colon) | TGI (SR leukemia) | TGI (OVCAR-5 ovarian) | TGI (UACC-62 melanoma) | TGI (HS 578T breast) | TGI (HCT-15 colon) | TGI (NCI-H460 lung) | TGI (TK-10 renal) | TGI (A498 renal) | TGI (T-47D breast) | TGI (OVCAR-8 ovarian) | TGI (SNB-19 CNS) | TGI (MOLT-4 leukemia) | TGI (NCI-H23 lung) | TGI (A549 NSCLC) | TGI (M14 melanoma) | TGI (HOP-62 NSCLC) | TGI (K-562 leukemia) | TGI (DU-145 prostate) | TGI (SF-268 CNS) | TGI (SF-539 CNS) | TGI (HT29 colon) | TGI (NCI-H226 lung) | TGI (PC-3 prostate) | TGI (U251 CNS) | TGI (SK-MEL-5 melanoma) | TGI (UACC-257 melanoma) | TGI (HCT-116 colon) | TGI (HOP-92 NSCLC) | TGI (MCF7 breast) | TGI (NCI-H522 lung) | TGI (ACHN renal) | TGI (786-0 renal) | TGI (KM12 colon) | TGI (SN12C renal) | TGI (EKVX NSCLC) | TGI (SK-MEL-28 melanoma) | TGI (SNB-75 CNS)
89.6 µM: TGI (CAKI-1 renal)
62.8 µM: TGI (NCI/ADR-RES ovarian)
82.3 µM: TGI (OVCAR-3 ovarian)
53.8 µM: TGI (MDA-MB-435)
50.4 µM: TGI (SF-295 CNS)
